The term Kd denotes the constant that tells how readily two partners part at equilibrium.

One assay concerns the target T1, Aurora kinase A (Homo sapiens, UniProt O14965).
T1 construct: gene AURKA
Put plainly: KdELECT competition binding (DiscoverX), 11-point; nanoDSF thermal shift. In general terms: In DSF a fluorescence change marks the thermal transition of the protein.

The next assay has as its target T2, N-acetyltransferase 2 (Homo sapiens, UniProt P11245).
T2 construct: gene NAT2
Description: recombinant human NAT2 acetylation kinetics, LC-MS/MS of NAPA. The class given is biochemical.

For a further assay, the target named is AURKA (Homo sapiens, UniProt O14965). Put plainly: biochemical. The arrangement: scanMAX competition binding; kinase recovered on immobilized ligand quantified by qPCR, per cent of control. The settings on record: read-out: APA (POC). As for the experimental part:
(§1) The binding affinities of APA and NAPA were evaluated in the scanMAX^sm Kinase Assay Panel (DiscoverX) at a final concentration of 10 µM. The compounds were tested for steric or allosteric binding to kinases in solution. The kinase was captured from the solution through an immobilized kinase-specific ligand and the kinase recovery was quantified. The amount of recovered kinase in the presence or absence of APA or NAPA was measured by quantitative PCR compared with the kinase capture in absence of the compound. Any compound reducing the binding affinity of a kinase to the respective immobilized ligand was scored as a potential hit, and the binding affinity of the compound toward a kinase is interpreted as the difference between the kinase recovery in the absence and presence of the compound. The inhibitory binding constants (Kd) of APA and NAPA to AURKA were evaluated in a KdELECT Kinase Assay (DiscoverX). […] Data acquisition followed the same methodology as for the scanMAX^sm Kinase Assay Panel. 6 Supplementary Figure 4. Kinome inhibition profiles of APA and its NAT2 metabolite NAPA identifies preferential APA kinase targets and differential binding to AURKA a The human kinome was assessed for binding affinity to APA and NAPA at 10 µM concentration (468 kinases in the scanMAX Kinase Assay Panel, DiscoverX). The family stratification of kinases is shown as a cladogram. Circles visualize the binding affinity of NAPA and APA towards each kinase with a higher intensity of blue corresponding to a higher binding affinity. […] One single data point from one experiment at a concentration 18.5 µM of APA was excluded as an outlier. c Thermal shift assay for human recombinant AURKA in the presence of APA and the selective inhibitor S1451. Melting temperatures were obtained by calculating the first derivative of the tryptophan fluorescence ratio at 350 nm and 330 nm and are shown for AURKA in the presence of S1451 (blue) and APA (yellow). Structural similarities between APA and kinase inhibitors[27] prompted investigation of protein kinases as mediators of APA toxicity. […] To enrich for kinase interactions that could explain the preferential killing of slow NAT2 cells, we compared the binding affinity of each kinase with APA and NAPA, selected 44 targets with preferential binding to APA and excluded kinases non-essential for cell survival and those not expressed in CRC cells (Supplementary Fig. 4A, Supplementary Table 4). […] The growth inhibition of RKO and DLD-1 following siRNA-mediated AURKA knockdown (Figs. 3c, d) reflected the relative efficiency of protein downregulation (Supplementary Fig. 5C, D). […] (Supplementary Fig. 4C). AURKA regulates cell cycle progression through association with other centrosome and spindle-associated proteins. Its activation requires auto-phosphorylation at Thr288 and ensures spindle pole integrity, centrosome duplication as well as adequate chromosomal alignment and segregation, while its inhibition leads to multipolar spindles with acentrosomal poles[28],[31]. […] S1451 reduced the fraction of pAURKA levels by >90% regardless of NAT2 expression (Fig. 3f and Su

For a further assay, the target named is CAMK2A (Homo sapiens, UniProt Q9UQM7). Put plainly: biochemical. Details: scanMAX competition binding; kinase recovered on immobilized ligand quantified by qPCR, per cent of control. Conditions: read-out: APA (POC). On the procedure:
as §1

A further assay addresses CDK7 (Homo sapiens, UniProt P50613). Put plainly: biochemical. Details: scanMAX competition binding; kinase recovered on immobilized ligand quantified by qPCR, per cent of control. The settings on record: read-out: APA (POC). On the procedure: as §1
The target in a further assay is CLK4 (Homo sapiens, UniProt Q9HAZ1). Description: biochemical. Conditions: read-out: APA (POC). The arrangement: scanMAX competition binding; kinase recovered on immobilized ligand quantified by qPCR, per cent of control. As for the experimental part:
as §1

The target of the next assay is DYRK2 (Homo sapiens, UniProt Q92630). Description: biochemical. The arrangement: scanMAX competition binding; kinase recovered on immobilized ligand quantified by qPCR, per cent of control. Conditions: read-out: APA (POC). On the procedure: as §1
DYRK2, sequence (Q92630 whole entry): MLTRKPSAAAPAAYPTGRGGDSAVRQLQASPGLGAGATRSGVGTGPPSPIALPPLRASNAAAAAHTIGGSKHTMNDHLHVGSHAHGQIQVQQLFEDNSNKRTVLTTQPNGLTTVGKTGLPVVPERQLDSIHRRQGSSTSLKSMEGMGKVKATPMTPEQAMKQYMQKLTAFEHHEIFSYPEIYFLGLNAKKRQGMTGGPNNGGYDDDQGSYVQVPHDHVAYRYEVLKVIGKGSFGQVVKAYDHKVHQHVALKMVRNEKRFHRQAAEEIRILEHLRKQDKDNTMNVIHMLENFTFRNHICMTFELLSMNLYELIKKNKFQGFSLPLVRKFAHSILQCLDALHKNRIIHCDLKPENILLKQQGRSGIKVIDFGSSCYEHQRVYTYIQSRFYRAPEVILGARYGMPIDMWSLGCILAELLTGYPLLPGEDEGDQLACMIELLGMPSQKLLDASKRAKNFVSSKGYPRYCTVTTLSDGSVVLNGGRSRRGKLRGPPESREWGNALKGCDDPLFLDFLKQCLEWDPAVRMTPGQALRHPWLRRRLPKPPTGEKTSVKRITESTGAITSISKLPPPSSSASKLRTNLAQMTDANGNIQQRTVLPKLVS
The target in another assay is FLT1 (Homo sapiens, UniProt P17948). Description: biochemical. Details: scanMAX competition binding; kinase recovered on immobilized ligand quantified by qPCR, per cent of control. Conditions: read-out: APA (POC). On the procedure:
as §1

The target in a further assay is HIPK1 (Homo sapiens, UniProt Q86Z02). Description: biochemical. The arrangement: scanMAX competition binding; kinase recovered on immobilized ligand quantified by qPCR, per cent of control. The settings on record: read-out: APA (POC). On the procedure:
as §1

A further assay has as its target IRAK3 (Homo sapiens, UniProt Q9Y616). Description: biochemical. The arrangement: scanMAX competition binding; kinase recovered on immobilized ligand quantified by qPCR, per cent of control. Conditions: read-out: APA (POC). As for the experimental part:
as §1

The target in a further assay is MAP3K9 (Homo sapiens, UniProt P80192). Put plainly: biochemical. Details: scanMAX competition binding; kinase recovered on immobilized ligand quantified by qPCR, per cent of control. Conditions: read-out: APA (POC). As for the experimental part: as §1
MAP3K9, sequence (P80192 whole entry): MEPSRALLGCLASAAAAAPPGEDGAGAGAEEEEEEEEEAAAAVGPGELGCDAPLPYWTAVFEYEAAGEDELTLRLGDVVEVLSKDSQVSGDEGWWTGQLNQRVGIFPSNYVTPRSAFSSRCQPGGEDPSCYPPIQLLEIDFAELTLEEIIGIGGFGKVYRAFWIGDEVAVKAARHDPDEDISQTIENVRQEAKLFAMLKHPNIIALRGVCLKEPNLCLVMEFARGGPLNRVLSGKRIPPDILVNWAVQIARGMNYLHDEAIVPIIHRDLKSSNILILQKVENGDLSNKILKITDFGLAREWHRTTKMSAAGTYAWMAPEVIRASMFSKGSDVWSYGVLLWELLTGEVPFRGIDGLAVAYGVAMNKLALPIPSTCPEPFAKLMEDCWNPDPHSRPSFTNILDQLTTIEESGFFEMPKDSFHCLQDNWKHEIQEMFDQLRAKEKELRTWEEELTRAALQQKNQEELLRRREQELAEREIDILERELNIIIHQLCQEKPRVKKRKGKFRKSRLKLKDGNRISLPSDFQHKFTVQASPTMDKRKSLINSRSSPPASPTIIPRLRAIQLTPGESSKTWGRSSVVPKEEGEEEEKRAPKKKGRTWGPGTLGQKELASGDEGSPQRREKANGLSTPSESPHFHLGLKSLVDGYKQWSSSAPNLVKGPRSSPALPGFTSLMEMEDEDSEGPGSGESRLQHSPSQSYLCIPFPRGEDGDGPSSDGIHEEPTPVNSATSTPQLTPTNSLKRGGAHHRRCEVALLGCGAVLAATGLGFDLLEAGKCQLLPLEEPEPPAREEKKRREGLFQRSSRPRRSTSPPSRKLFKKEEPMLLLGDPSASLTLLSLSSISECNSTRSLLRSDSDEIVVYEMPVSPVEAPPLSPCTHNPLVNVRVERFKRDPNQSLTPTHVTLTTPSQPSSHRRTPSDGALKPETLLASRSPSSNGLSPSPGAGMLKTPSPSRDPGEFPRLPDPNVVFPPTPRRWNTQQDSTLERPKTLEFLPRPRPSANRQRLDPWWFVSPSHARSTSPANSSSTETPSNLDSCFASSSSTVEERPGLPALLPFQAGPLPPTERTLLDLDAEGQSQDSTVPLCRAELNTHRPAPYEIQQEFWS
Another assay concerns the target NTRK3 (Homo sapiens, UniProt Q16288). Description: biochemical. Conditions: read-out: APA (POC). Details: scanMAX competition binding; kinase recovered on immobilized ligand quantified by qPCR, per cent of control. As for the experimental part:
as §1

For another assay, the target named is PIP4K2B (Homo sapiens, UniProt P78356). Put plainly: biochemical. Details: scanMAX competition binding; kinase recovered on immobilized ligand quantified by qPCR, per cent of control. The settings on record: read-out: APA (POC). On the procedure: as §1
A further assay deals with PIP5K1A (Homo sapiens, UniProt Q99755). Put plainly: biochemical. Conditions: read-out: APA (POC). Details: scanMAX competition binding; kinase recovered on immobilized ligand quantified by qPCR, per cent of control. As for the experimental part: as §1
PIP5K1A, sequence (Q99755 whole entry): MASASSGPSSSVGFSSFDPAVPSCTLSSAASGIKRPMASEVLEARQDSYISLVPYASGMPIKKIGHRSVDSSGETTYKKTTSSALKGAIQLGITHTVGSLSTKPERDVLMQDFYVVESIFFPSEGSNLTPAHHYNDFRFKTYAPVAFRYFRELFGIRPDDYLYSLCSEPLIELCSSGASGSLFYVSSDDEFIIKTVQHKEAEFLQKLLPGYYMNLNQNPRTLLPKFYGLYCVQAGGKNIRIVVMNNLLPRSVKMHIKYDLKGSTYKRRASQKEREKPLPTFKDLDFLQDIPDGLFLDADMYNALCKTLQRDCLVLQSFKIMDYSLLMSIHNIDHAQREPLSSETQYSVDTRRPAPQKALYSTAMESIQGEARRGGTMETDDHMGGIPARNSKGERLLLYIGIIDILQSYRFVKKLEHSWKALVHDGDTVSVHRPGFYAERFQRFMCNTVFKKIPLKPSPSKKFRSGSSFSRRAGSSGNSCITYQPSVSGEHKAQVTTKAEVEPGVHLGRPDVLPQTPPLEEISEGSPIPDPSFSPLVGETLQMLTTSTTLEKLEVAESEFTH
Another assay addresses T3, RPS6KA3_Dom1 (Homo sapiens, UniProt P51812).
T3 construct: gene RPS6KA3; Kin.Dom.1 N-terminal
Description: biochemical. Details: scanMAX competition binding; kinase recovered on immobilized ligand quantified by qPCR, per cent of control. Conditions: read-out: APA (POC). As for the experimental part:
as §1

Another assay addresses TNIK (Homo sapiens, UniProt Q9UKE5). Put plainly: biochemical. Conditions: read-out: APA (POC). The arrangement: scanMAX competition binding; kinase recovered on immobilized ligand quantified by qPCR, per cent of control. On the procedure:
as §1

CDK7, sequence (P50613 whole entry): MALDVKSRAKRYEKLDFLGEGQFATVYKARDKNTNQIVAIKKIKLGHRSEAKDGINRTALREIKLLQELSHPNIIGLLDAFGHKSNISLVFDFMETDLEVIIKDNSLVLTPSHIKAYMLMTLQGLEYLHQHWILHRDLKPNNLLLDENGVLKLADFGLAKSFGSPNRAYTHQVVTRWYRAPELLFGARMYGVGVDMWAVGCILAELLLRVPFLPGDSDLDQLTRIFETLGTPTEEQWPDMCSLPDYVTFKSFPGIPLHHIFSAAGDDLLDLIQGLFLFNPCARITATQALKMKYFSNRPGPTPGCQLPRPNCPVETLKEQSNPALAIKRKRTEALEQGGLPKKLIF
T1 sequence (O14965 whole entry): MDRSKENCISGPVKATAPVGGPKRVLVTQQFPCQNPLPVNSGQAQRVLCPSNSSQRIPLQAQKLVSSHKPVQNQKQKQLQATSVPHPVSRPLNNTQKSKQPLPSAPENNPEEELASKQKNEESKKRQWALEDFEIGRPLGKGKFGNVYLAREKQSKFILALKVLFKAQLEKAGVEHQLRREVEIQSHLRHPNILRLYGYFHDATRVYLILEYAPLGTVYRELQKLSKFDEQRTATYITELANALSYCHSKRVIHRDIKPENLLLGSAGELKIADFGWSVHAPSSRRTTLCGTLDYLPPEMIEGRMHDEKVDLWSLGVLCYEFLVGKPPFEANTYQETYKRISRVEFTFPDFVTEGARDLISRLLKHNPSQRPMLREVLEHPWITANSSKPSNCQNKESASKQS
AURKA, sequence (O14965 whole entry): as above
CLK4, sequence (Q9HAZ1 whole entry): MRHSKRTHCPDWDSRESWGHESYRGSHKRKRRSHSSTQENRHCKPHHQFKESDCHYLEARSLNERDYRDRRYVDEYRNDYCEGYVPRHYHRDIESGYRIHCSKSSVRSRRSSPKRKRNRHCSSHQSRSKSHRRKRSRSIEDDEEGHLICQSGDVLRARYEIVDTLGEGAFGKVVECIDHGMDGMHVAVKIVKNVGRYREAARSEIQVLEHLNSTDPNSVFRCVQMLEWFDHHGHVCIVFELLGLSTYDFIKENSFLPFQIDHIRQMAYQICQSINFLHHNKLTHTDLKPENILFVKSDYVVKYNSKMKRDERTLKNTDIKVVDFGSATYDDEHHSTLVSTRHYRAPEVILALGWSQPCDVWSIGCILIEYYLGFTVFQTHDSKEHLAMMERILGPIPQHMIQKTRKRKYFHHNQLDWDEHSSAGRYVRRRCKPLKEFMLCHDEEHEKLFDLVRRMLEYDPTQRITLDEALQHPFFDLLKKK
CAMK2A, sequence (Q9UQM7 whole entry): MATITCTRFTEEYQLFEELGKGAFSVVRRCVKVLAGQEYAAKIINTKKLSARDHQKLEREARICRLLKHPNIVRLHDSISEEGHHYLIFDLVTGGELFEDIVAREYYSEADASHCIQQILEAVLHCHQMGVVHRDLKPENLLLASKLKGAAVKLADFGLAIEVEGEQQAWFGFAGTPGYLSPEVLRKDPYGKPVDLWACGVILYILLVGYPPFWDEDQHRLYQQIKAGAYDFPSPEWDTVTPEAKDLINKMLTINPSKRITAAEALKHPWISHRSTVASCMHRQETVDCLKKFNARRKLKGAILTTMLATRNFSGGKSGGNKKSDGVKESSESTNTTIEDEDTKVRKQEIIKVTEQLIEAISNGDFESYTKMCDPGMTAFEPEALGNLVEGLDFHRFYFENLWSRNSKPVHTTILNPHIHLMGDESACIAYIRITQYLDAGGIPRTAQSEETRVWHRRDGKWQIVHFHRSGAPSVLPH
NTRK3, sequence (Q16288 whole entry): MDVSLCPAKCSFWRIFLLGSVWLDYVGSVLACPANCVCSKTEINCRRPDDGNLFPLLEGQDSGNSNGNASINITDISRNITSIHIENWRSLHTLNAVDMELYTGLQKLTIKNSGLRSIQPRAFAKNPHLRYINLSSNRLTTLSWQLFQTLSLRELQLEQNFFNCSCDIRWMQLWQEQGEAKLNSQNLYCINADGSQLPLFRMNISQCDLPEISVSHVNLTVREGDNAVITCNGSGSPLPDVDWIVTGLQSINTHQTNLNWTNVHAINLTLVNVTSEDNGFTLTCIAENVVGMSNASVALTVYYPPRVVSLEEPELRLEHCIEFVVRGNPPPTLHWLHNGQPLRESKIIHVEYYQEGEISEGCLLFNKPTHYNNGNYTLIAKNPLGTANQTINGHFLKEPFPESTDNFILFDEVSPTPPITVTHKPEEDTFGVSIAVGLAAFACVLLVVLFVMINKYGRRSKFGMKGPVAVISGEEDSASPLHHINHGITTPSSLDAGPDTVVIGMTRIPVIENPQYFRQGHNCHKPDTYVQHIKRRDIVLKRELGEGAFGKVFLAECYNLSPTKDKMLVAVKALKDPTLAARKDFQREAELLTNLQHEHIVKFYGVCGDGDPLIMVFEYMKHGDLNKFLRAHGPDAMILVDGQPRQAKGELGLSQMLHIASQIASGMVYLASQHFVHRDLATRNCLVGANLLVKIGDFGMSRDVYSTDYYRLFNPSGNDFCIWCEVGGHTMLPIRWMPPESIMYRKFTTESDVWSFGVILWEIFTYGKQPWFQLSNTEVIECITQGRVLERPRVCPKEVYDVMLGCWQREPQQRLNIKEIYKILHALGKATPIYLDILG

In the case of `COc1cc(Nc2cncc(-c3ccc(N)cc3)n2)cc(OC)c1OC` [APA, 6-(4-aminophenyl)-N-(3,4,5-trimethoxyphenyl)pyrazin-2-amine], the dissociation constant Kd on Aurora kinase A worked out at 13.5 µM. Also, the “recombinant human NAT2 acetylation kinetics, LC-MS/MS of NAPA” value at N-acetyltransferase 2 was “Recombinant assays with human NAT1 and NAT2 further proved APA acetylation to be specifically mediated by NAT2”. For the same compound, the remaining binding at 10 µM is 53% on AURKA; 59% at CAMK2A; 49% at CDK7; 27% on CLK4; 63% at DYRK2; 36% at FLT1. The remaining binding at 10 µM turned out to be 12% at HIPK1; 46% on IRAK3; 8.5% at MAP3K9; 11% at NTRK3; 20% at PIP4K2B; 52% at PIP5K1A. Further, the remaining binding at 10 µM on RPS6KA3_Dom1 and at TNIK was 39% in each case.
